The source of these data is patent US9931327B2, “Derivatives of 1-phenyl-2-pyridinyl alkyl alcohols as phosphodiesterase inhibitors” (Chiesi Farmaceutici S.p.A., priority 2011, dated 2018).

This assay has as its system LPS-induced TNF-α release in peripheral blood mononuclear cells (PBMCs). Description: In vitro determination of PDE4 inhibitory activity in the PBMCs assay (LPS-induced TNF-α release). Format: cell-based, human. The settings on record: PBMC, read-out: PDE4 inhibition (IC50, 50% inhibition of LPS-induced TNF-α release). The protocol: The assay, which is based on the known inhibitory activity exerted by PDE4 inhibitors on the lipopolyshaccarides (LPS)-induced tumour necrosis factor-alpha (TNF-α release in peripheral blood mononuclear cells (PBMCs), was performed according to a method previously described (Hatzelmann A et al., J. Pharmacol. Exp. Ther., 2001; 297:267-279; and Draheim R et al., J. Pharmacol. Exp. Ther., 2004; 308:555-563, which are incorporated herein by reference in their entireties). Cryopreserved human PBMCs, (100 l/well) were incubated in 96-well plates (10^5 cells/well), for 30 minutes, in the presence or absence (50 microl) of the test compounds whose concentrations ranged from 10^−12 M to 10^−6 M or from […] to 10^−7 M. Subsequently, LPS (3 ng/ml) was added.
After 18 hours of incubation at 37° C. in a humidified incubator under an atmosphere of 95% air and 5% CO2, culture medium was collected and TNF-α measured by ELISA. The results of the tested compounds, representatives of the invention, expressed as mean±95% confidence limits of the molar concentration of the test compound producing 50% inhibition of LPS-induced TNF-α release (IC50) are shown in the following Table: […]

The mark [1] stands for this setting: human PBMCs, LPS 3 ng/ml, 18 hours, TNF-α by ELISA.

Counter-ions that a name gives are not always drawn. Like-named read-outs stand apart in the source and are kept apart here. Where only a bound is given, the exact number is not on record here.

As to `CN(C)C(=O)c1cccc(S(=O)(=O)N2CCC[C@H]2C(=O)O[C@@H](Cc2c(Cl)c[n+]([O-])cc2Cl)c2ccc(OC(F)F)c(OCC3CC3)c2)c1` [Compound 54, 3,5-dichloro-4-((S)-2-(3-(cyclopropylmethoxy)-4-(difluoromethoxy)phenyl)-2-((S)-1-(3-(dimethylcarbamoyl)phenylsulfonyl)pyrrolidine-2-carbonyloxy)ethyl)pyridine 1-oxide], under setting [1], the IC50 – broadly, the concentration needed to halve the response being measured – was below 0.1 nM.
The same measure, in the same setting: to `CN(C)C(=O)c1cccc(S(=O)(=O)N2CCN(CC(=O)O[C@@H](Cc3c(Cl)c[n+]([O-])cc3Cl)c3ccc(OC(F)F)c(OCC4CC4)c3)CC2)c1` [Compound 121, (S)-3,5-dichloro-4-(2-(3-(cyclopropylmethoxy)-4-(difluoromethoxy)phenyl)-2-(2-(4-(3-(dimethylcarbamoyl)phenylsulfonyl)piperazin-1-yl)acetoxy)ethyl)pyridine 1-oxide] belongs 0.1 to 1 nM; to `COc1ccc([C@H](Cc2c(Cl)c[n+]([O-])cc2Cl)OC(=O)[C@@H]2CCCN2S(=O)(=O)c2cccc(C(=O)N(C)C)c2)cc1OC` [Compound 310, 3,5-dichloro-4-((S)-2-(3,4-dimethoxyphenyl)-2-((S)-1-(3-(dimethylcarbamoyl)phenylsulfonyl)pyrrolidine-2-carbonyloxy)ethyl)pyridine 1-oxide], below 0.1 nM; to `CN1CCN(CCS(=O)(=O)N2CCS[C@H]2C(=O)O[C@@H](Cc2c(Cl)c[n+]([O-])cc2Cl)c2ccc(OC(F)F)c(OCC3CC3)c2)CC1` [Compound 288, 3,5-dichloro-4-((S)-2-(3-(cyclopropylmethoxy)-4-(difluoromethoxy)phenyl)-2-((S)-3-(2-(4-methylpiperazin-1-yl)ethylsulfonyl)thiazolidine-2-carbonyloxy)ethyl)pyridine 1-oxide], 0.1 to 1 nM.
Same read-out and setting: the same measure for `CN1CCN(C(=O)c2cccc(S(=O)(=O)N3CCS[C@H]3C(=O)O[C@@H](Cc3c(Cl)c[n+]([O-])cc3Cl)c3ccc(OC(F)F)c(OCC4CC4)c3)c2)CC1` [Compound 132, 3,5-dichloro-4-((S)-2-(3-(cyclopropylmethoxy)-4-(difluoromethoxy)phenyl)-2-((S)-3-(3-(4-methylpiperazine-1-carbonyl)phenylsulfonyl)thiazolidine-2-carbonyloxy)ethyl)pyridine 1-oxide]: below 0.1 nM; for `Cn1ccnc1S(=O)(=O)N1CCSC1C(=O)O[C@@H](Cc1c(Cl)c[n+]([O-])cc1Cl)c1ccc(OC(F)F)c(OCC2CC2)c1` (stereo partly drawn) [Compound 64, 3,5-dichloro-4-((2S)-2-(3-(cyclopropylmethoxy)-4-(difluoromethoxy)phenyl)-2-(3-(1-methyl-1H-imidazol-2-ylsulfonyl)thiazolidine-2-carbonyloxy)ethyl)pyridine 1-oxide]: below 0.1 nM; for `O=C(O[C@@H](Cc1c(Cl)c[n+]([O-])cc1Cl)c1ccc(OC(F)F)c(OCC2CC2)c1)[C@@H]1SCCN1S(=O)(=O)c1ccc2c(c1)OCCO2` [Compound 201, 3,5-dichloro-4-((S)-2-(3-(cyclopropylmethoxy)-4-(difluoromethoxy)phenyl)-2-((S)-3-(2,3-dihydrobenzo[b][1,4]dioxin-6-ylsulfonyl)thiazolidine-2-carbonyloxy)ethyl)pyridine 1-oxide]: 0.1 to 1 nM.
Take `O=C(O[C@@H](Cc1c(Cl)c[n+]([O-])cc1Cl)c1ccc(OC(F)F)c(OCC2CC2)c1)[C@@H]1SCCN1C(=O)c1ccccc1` [Compound 186, 4-((S)-2-((S)-3-benzoylthiazolidine-2-carbonyloxy)-2-(3-(cyclopropylmethoxy)-4-(difluoromethoxy)phenyl)ethyl)-3,5-dichloropyridine 1-oxide]: the IC50 under setting [1] fell in the range of 0.1 to 1 nM.
On the same count and under the same terms, to `Nc1ccc(S(=O)(=O)N2CCOC(C(=O)O[C@@H](Cc3c(Cl)c[n+]([O-])cc3Cl)c3ccc(OC(F)F)c(OCC4CC4)c3)C2)cc1` (stereo partly drawn) [Compound 139, 4-((2S)-2-(4-(4-aminophenylsulfonyl)morpholine-2-carbonyloxy)-2-(3-(cyclopropylmethoxy)-4-(difluoromethoxy)phenyl)ethyl)-3,5-dichloropyridine 1-oxide] belongs below 0.1 nM; to `CS(=O)(=O)N(CCN1CCOCC1)c1cc(OCC2CC2)cc(C(=O)N2CCSC2C(=O)O[C@@H](Cc2c(Cl)c[n+]([O-])cc2Cl)c2ccc(OC(F)F)c(OCC3CC3)c2)c1` (stereo partly drawn) [Compound 49, 3,5-dichloro-4-((2S)-2-(3-(cyclopropylmethoxy)-4-(difluoromethoxy)phenyl)-2-(3-(3-(cyclopropylmethoxy)-5-(N-(2-morpholinoethyl)methylsulfonamido)benzoyl)thiazolidine-2-carbonyloxy)ethyl)pyridine 1-oxide formate], 0.1 to 1 nM; to `O=C(O[C@@H](Cc1c(Cl)c[n+]([O-])cc1Cl)c1ccc(OC(F)F)c(OCC2CC2)c1)[C@@H]1SCCN1C(=O)c1ccc(CN2CCS(=O)(=O)CC2)cc1` [Compound 40, 3,5-dichloro-4-((S)-2-(3-(cyclopropylmethoxy)-4-(difluoromethoxy)phenyl)-2-((S)-3-(4-(1,1-dioxothiomorpholinomethyl)benzoyl)thiazolidine-2-carbonyloxy)ethyl)pyridine 1-oxide], 0.1 to 1 nM.
On the same count and under the same terms, to `N#Cc1cccc(S(=O)(=O)N2CCS[C@H]2C(=O)O[C@@H](Cc2c(Cl)c[n+]([O-])cc2Cl)c2ccc(OC(F)F)c(OCC3CC3)c2)c1` [Compound 207, 3,5-dichloro-4-((S)-2-((S)-3-(3-cyanophenylsulfonyl)thiazolidine-2-carbonyloxy)-2-(3-(cyclopropylmethoxy)-4-(difluoromethoxy)phenyl)ethyl)pyridine 1-oxide] belongs 0.1 to 1 nM.
Consider `Nc1ccc(S(=O)(=O)N2CCS[C@@H]2C(=O)O[C@@H](Cc2c(Cl)c[n+]([O-])cc2Cl)c2ccc(OC(F)F)c(OCC3CC3)c2)cc1` [Compound 151, 4-((S)-2-((R)-3-(4-aminophenylsulfonyl)thiazolidine-2-carbonyloxy)-2-(3-(cyclopropylmethoxy)-4-(difluoromethoxy)phenyl)ethyl)-3,5-dichloropyridine 1-oxide], for which, where the note is “Homo sapiens, 18 h”, the IC50 lay in the range of 0.1 to 1 nM.
Consider `Cc1cc(S(=O)(=O)N2CCS[C@H]2C(=O)O[C@@H](Cc2c(Cl)c[n+]([O-])cc2Cl)c2ccc(OC(F)F)c(OCC3CC3)c2)c(C)s1` [Compound 203, 3,5-dichloro-4-((S)-2-(3-(cyclopropylmethoxy)-4-(difluoromethoxy)phenyl)-2-((S)-3-(2,5-dimethylthiophen-3-ylsulfonyl)thiazolidine-2-carbonyloxy)ethyl)pyridine 1-oxide], for which, under setting [1], the IC50 fell in the range of 0.1 to 1 nM.
On to `CN(C)S(=O)(=O)c1cccc(S(=O)(=O)N2CCS[C@H]2C(=O)O[C@@H](Cc2c(Cl)c[n+]([O-])cc2Cl)c2ccc(OC(F)F)c(OCC3CC3)c2)c1` [Compound 97, 3,5-dichloro-4-((S)-2-(3-(cyclopropylmethoxy)-4-(difluoromethoxy)phenyl)-2-((S)-3-(3-(N,N-dimethylsulfamoyl)phenylsulfonyl)thiazolidine-2-carbonyloxy)ethyl)pyridine 1-oxide], for which, under setting [1], the IC50 is below 0.1 nM.
On the same count and under the same terms, the same measure for `O=C(O[C@@H](Cc1c(Cl)c[n+]([O-])cc1Cl)c1ccc(OC(F)F)c(OCC2CC2)c1)[C@@H]1SCCN1S(=O)(=O)c1ccc(N2CCOCC2)nc1` [Compound 105, 3,5-dichloro-4-((S)-2-(3-(cyclopropylmethoxy)-4-(difluoromethoxy)phenyl)-2-((S)-3-(6-morpholinopyridin-3-ylsulfonyl)thiazolidine-2-carbonyloxy)ethyl)pyridine 1-oxide]: 0.1 to 1 nM; for `O=C(O[C@@H](Cc1c(Cl)c[n+]([O-])cc1Cl)c1ccc(OC(F)F)c(OCC2CC2)c1)[C@@H]1SCCN1C(=O)c1ccc(N2CCS(=O)(=O)CC2)cc1` [Compound 36]: 0.1 to 1 nM.
`O=C(OC(Cc1c(Cl)c[n+]([O-])cc1Cl)c1ccc(OC(F)F)c(OCC2CC2)c1)C1CNCCO1` (centres unmarked) [Compound 8]: the IC50 (human PBMCs, LPS 3 ng/ml, 18 hours, compounds of formula (II)) lay within 1 to 10 nM.
Take `Cc1noc2ncc(S(=O)(=O)N3CSC[C@H]3C(=O)O[C@@H](Cc3c(Cl)c[n+]([O-])cc3Cl)c3ccc(OC(F)F)c(OCC4CC4)c3)cc12` [Compound 253, 3,5-dichloro-4-((S)-2-(3-(cyclopropylmethoxy)-4-(difluoromethoxy)phenyl)-2-((R)-3-(3-methylisoxazolo[5,4-b]pyridin-5-ylsulfonyl)thiazolidine-4-carbonyloxy)ethyl)pyridine 1-oxide]: under setting [1], the IC50 lay within 0.1 to 1 nM.
Still for that read-out and setting: the same measure for `CN(C)C(=O)c1cccc(S(=O)(=O)N2CCS[C@H]2C(=O)O[C@@H](Cc2c(Cl)c[n+]([O-])cc2Cl)c2ccc(OC(F)F)c(O)c2)c1` [Compound 263, 3,5-dichloro-4-((S)-2-(4-(difluoromethoxy)-3-hydroxyphenyl)-2-((S)-3-(3-(dimethylcarbamoyl)phenylsulfonyl)thiazolidine-2-carbonyloxy)ethyl)pyridine 1-oxide]: 1 to 10 nM.
